Common to all, as to type: biochemical
Assay [1] is described as follows: Carboxyfluorescein dye leakage from LUVs, Aβ42. The following applies: Aβ42 50 μM.
Experimental: Carboxyfluorescein dye loaded Large Unilamellar Vesicles (LUVs) preparation LUVs were prepared using a mixture of DMPC, Cholesterol, and GM1 (68:30:2, molar). Lipids were dissolved in chloroform and methanol (2:1, 2 mM) in a glass vessel, and solvents were evaporated using nitrogen gas to make lipid films.3 The lipid films were hydrated with 500 µL of carboxyfluorescein (CF) solution (200 µM) in 50mM HEPES buffer of pH 7.4. Then, the solution was vortexed vigorously for 30 min for emulsification. Then the glass vial was dipped into the liquid nitrogen for instant cooling, and after 5 min the frozen solution was dipped into a water bath at 50-60 °C for freeze-thawing.4This step was repeated five times. The excess dye was removed by ultracentrifugation at 20000 rpm, the supernatant […]
Carboxyfluorescein dye loaded Large Unilamellar Vesicles (LUVs) Leakage Study For leakage study, peptide and lipids were taken in 1:20 molar ratios, and the dye release was monitored by fluorescence emission. Emission was measured at 516 nm, and excitation at 485 nm, 3 nm of bandwidth on a Fluoromax-4, Horiba instrument. The complete dye release from the vesicle was obtained using Triton X-100, and the final fluorescence was measured. The % leakage was calculated as, % 𝐿𝑒𝑎𝑘𝑎𝑔𝑒 = (𝑂𝑏𝑠𝑒𝑟𝑣𝑒𝑑 𝑓𝑙𝑢𝑜𝑟𝑒𝑠𝑐𝑒𝑛𝑐𝑒 –𝑖𝑛𝑖𝑡𝑖𝑎𝑙 𝑓𝑙𝑢𝑜𝑟𝑒𝑠𝑐𝑒𝑛𝑐𝑒) × 100 % … ..(4) (𝑇𝑜𝑡𝑎𝑙 𝑓𝑙𝑢𝑜𝑟𝑒𝑠𝑐𝑒𝑛𝑐𝑒 ‒ 𝑖𝑛𝑖𝑡𝑖𝑎𝑙 𝑓𝑙𝑢𝑜𝑟𝑒𝑠𝑐𝑒𝑛𝑐𝑒) […]
For assay [2], the system named is Aβ42. Description: TEM of early events of Aβ42 aggregation. The following applies: absence of SP1; 1, 5, 10, 20 h.
Experimental: Transmission Electron Microscopy (TEM)
10μL aliquot from the stock peptide solution after incubation of 10 days (7 days for inhibition study) was added over the carbon-coated copper grid. Then 2% uranyl acetate solution (10μL) was added onto it and allowed to float for 1 min. The excess solution was removed using a blotting paper. The sample was dried at room temperature and kept in desiccators before taking TEM analysis on JEOL (Model: JEM 2100)
In assay [3] the test system is Aβ42. In words: DLS of Aβ42 aggregates. The following applies: untreated Aβ42 50 μM.
Experimental: Dynamic light scattering (DLS) measurements
DLS1,2 measurements were performed with the different Aβ42peptide samples (oligomers and mature fibrils) on a Malvern nano zetasizer (Malvern, UK) using a laser source with λ=633 nm and a detector at a scattering angle of θ = 173 degrees.
for the ThT assay, in the absence of ThT dye, for 1h, 5h, 10h and 20h min to generate oligomers and mature fibrils, respectively and the hydrodynamic diameter of them was immediately examined by DLS.
Prior to the analysis, samples were filtered through 0.45 µm PVDF membrane. The samples were placed in a disposable cuvette and held at the corresponding temperature during the analysis. For each sample, the analyses were recorded three times with 11 sub-runs using the multimodal mode. The Z-average diameter was calculated from the correlation function using Malvern technology software. g.

For Aβ42: Aβ42 peptide, the “dye leakage from LUVs” value is recorded as about 55% in assay [1] (absence of SP1, 5 h aged) and about 23% in assay [1] (absence of SP1, 10 h aged). For the same substance, the “morphology of Aβ42 aggregates (TEM)” value in the assay on Aβ42 [2] is “exhibited smaller aggregates at 1 h or 5 h”. In addition, the hydrodynamic diameter in the assay on Aβ42 [3] (1 h) is given as about 8 nm; in the assay with Aβ42 [3] (10 h) it was about 825 nm; in the assay on Aβ42 [3] (20 h), about 940 nm.

(Values after PMC8179358, “An explicitly designed paratope of amyloid-β prevents neuronal apoptosis in vitro and hippocampal damage in rat brain” (Chemical Science, 2020).)
